One may read the EC50 as the concentration giving half of the maximal effect.

The test system of one test is MCF7. The test is described as follows: Antiproliferative activity against human MCF7 cells. The class given is functional, cell-based.
The test system of another test is MDA-MB-231. Kind of test: Antiproliferative activity against human MDA-MB-231 cells. The class given is functional, cell-based.
The target of a further test is T1, Estrogen receptor (Homo sapiens, UniProt P03372).
T1 sequence (P03372 whole entry): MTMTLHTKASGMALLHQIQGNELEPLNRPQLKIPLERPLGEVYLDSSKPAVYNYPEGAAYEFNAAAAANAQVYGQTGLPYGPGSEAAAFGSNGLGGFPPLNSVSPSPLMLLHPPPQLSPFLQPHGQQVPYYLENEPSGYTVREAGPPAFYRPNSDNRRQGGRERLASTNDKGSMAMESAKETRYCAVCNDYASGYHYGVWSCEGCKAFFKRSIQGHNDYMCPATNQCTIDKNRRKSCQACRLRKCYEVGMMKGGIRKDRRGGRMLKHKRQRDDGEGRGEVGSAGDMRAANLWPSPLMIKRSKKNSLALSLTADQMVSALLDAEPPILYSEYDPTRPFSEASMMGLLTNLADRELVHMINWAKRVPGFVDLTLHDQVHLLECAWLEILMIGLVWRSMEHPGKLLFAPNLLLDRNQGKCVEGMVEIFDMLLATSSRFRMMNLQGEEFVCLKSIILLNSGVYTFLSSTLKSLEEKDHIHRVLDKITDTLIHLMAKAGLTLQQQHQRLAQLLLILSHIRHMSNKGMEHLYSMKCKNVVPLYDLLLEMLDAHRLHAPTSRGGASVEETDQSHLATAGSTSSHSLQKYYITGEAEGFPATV
Kind of test: Transactivation of ERalpha in human MCF7-2a cells assessed as luciferase reporter gene expression. The class given is cell-based. In general terms: Reporter assays use an easily measured gene product as a stand-in for the process of interest.

In test [1] the target is T2, Estrogen receptor (Homo sapiens) (UniProt P03372).
T2 sequence (whole entry): T1 sequence (P03372 whole entry)
Kind of test: Transactivation of ERalpha in human MCF7-2a cells assessed as luciferase reporter gene expression at 1 uM relative to estradiol. It is filed as cell-based.

Activity calls are given as the source filed them. The rule behind the calls is not given here.

Consider `C#CCN1C=NC(c2ccc(O)cc2Cl)C1c1ccc(O)cc1Cl` (stereo unspecified), for which the result with MCF7 and with MDA-MB-231 was inactive. For the same compound, on Estrogen receptor, the 50% effective concentration (EC50) turned out to be 10 nM.

For the compound `C#CCN1C=NC(c2ccc(OC)cc2Cl)C1c1ccc(OC)cc1Cl` (stereo unspecified), in test [1], the Activity was 13%. For the same compound, the result with MCF7 and in the test on MDA-MB-231 was inactive.

These data come from ChEMBL document CHEMBL1152270, “Cobalt-alkyne complexes with imidazoline ligands as estrogenic carriers: synthesis and pharmacological investigations” (J Med Chem, 2008).
